Test results reported in patent publication US9986723B2, “Screen and use of therapeutics for pancreatic ductal adenocarcinoma” (The Board of Regents of the University of Texas System, priority 2014, dated 2018).

Tests used:
AsPC1 tumors = assay: Low dose warfarin in drinking water, orthotopic human tumor xenograft; format: in vivo, mouse; conditions: warfarin 1 mg/L drinking water
Protocol: (§1) (FIG. 23A) Primary tumor burden after therapy with warfarin. Therapy was initiated when implanted tumors were visible by ultrasound (˜10 mm^3) and consisted of control (normal drinking water) or warfarin, administered in the drinking water at 0.5 mg/L (immunocompetent mice: Pan02 (n=4, control; 3, warfarin), KIC (n=10, control; 8, warfarin)) or 1 mg/L (Panc-1 (n=10, control; 8, warfarin), AsPC-1 (n=8, control; 6, warfarin), Capan-1 (n=10, control; 7, warfarin)) and continued for 2-4 weeks until control mice were moribund. Therapy in KIC mice was initiated at 3 weeks of age and continued for 4 weeks. (FIG. 23B) Metastases were determined grossly upon sacrifice and confirmed by histological evaluation of the liver. […] Incidence of metastasis is also indicated. […] Tumor volume determined by serial ultrasound. […] Therapy with mAb 10C9 (250 μg 2×/week) was initiated when tumors were established as above and persisted for 4 weeks. […] Error bars indicate s.e.m.
(§2) Animal studies. All animals were housed in a pathogen-free facility with 24-hour access to food and water. Experiments were approved by, and conducted in accordance with, an IACUC approved protocol at UT Southwestern. LSL-Kras^G12D; Cdkn2a^lox/lox; p48^Cre (KIC) mice were generated as previously described (Ostapoff et al., 2014). Four- to 6-week-old female NOD/SCID and C57/B16 mice were obtained from an on campus supplier. A total of 1×10^6 AsPc-1, Panc-1, Mia Paca2, Capan-1, C5LM2, Mia shLuc and Mia shAxl or 5×10^5 Pan02 cells, were injected orthotopically as described (Ostapoff et al., 2014). Mice with established tumors, as determined by sonography were randomized to receive normal drinking water or water containing 1 mg/L (˜3.0 μM) warfarin for experiments in immunocompromised mice and 0.5 mg/L (˜1.5 μM) in experiments in immunocompetent animals with or without gemcitabine 25 mg/kg twice weekly depending on experimental design.

Capan-1 tumors = assay: as above; format: in vivo, mouse
Protocol: as §1, §2

KIC tumors = assay: Low dose warfarin in drinking water, spontaneous genetic PDA model; format: in vivo, mouse; conditions: warfarin 0.5 mg/L drinking water, 4 weeks from 3 weeks of age
Protocol: as §1
(§3) Animal studies. […] Mice with established tumors, as determined by sonography were randomized to receive normal drinking water or water containing 1 mg/L (˜3.0 μM) warfarin for experiments in immunocompromised mice and 0.5 mg/L (˜1.5 μM) in experiments in immunocompetent animals with or without gemcitabine 25 mg/kg twice weekly depending on experimental design.

[1] = system: pancreatic ductal adenocarcinoma (PDA) metastases; assay: Metastatic burden in five murine models of PDA under low dose warfarin; format: in vivo, mouse; conditions: four of the five PDA models; warfarin 0.5-1 mg/L drinking water
Protocol: as §1, §3

primary PDA cells = assay: Rgs16::GFP PDA primary cell culture, live cell counts after 24 hr drug treatment; format: cell-based, mouse; conditions: 24 hr, gemcitabine 10 μM, BGB324 or warfarin 1 or 10 μM
Protocol: Cell proliferation counts of primary PDA culture after 24 hr treatment with (FIG. 20A) gemcitabine (purple round); (FIG. 20B) BGB324 (green round); (FIG. 20C) warfarin (blue round); or (FIG. 20D) BGB324 with warfarin (green or blue round) at the indicated concentrations. PDA primary cells were plated at equal density (black open circle) at the start. Next day, cells were treated with drugs (D, red font) for 24 hr (red line). Approximate cell number at the start of drug treatment was obtained from another plate with equal density (red open circle). At the end of treatment, cells in each group were counted and subsequent passages started with cells plated at equal density (grey asterisk). Drug treated groups were allowed to grow without drug selection thereafter. Control cells (Ctrl) on separate plates were grown without drug and counted at the end of each passage (black open circle). PDA live cell numbers were obtained via counts using a hemocytometer after 2% Trypan blue staining to distinguish between living and dead cells under an inverted microscope with 10× objective. Statistical significances are based on comparison of drug-treated cell counts to Ctrl. […] Statistical analyses were obtained by comparing counts of drug-treated cells to Ctrl via unpaired and two-tailed Student's t-test. *, p<0.05; **, p<0.01; ***, p<0.001; ****, p<0.0001. Asterisks match the color of the comparison group.
Rgs16::GFP PDA primary cell culture. Primary Rgs16::GFP PDA cells were harvested from 6-week-old KIC mice. Cells were grown in 25 mM Glucose DMEM (HyClone) with 10% FBS (Serum Source International), penicillin and streptomycin (Life Technologies) on rat tail collagen typel (BD Biosciences) coated plates (0.5 μg/cm^2) in a humidified incubator at 37° C. and 5% CO2. Cells reaching confluency were washed twice with PBS (HyClone) and lifted with 0.05% Trypsin-EDTA (HyClone) treatment up to 10 min in the incubator. For drug tests in FIGS. 20A-D, primary PDA cells were incubated with gemcitabine (10 μM dissolved in PBS), warfarin (1 μM or 10 μM dissolved in water), BGB324 (1 μM or 10 μM dissolved in DMSO) or warfarin and BGB324 together for 24 hrs in 37° C. incubator. PDA live cell numbers were obtained via counts using a hemocytometer following 2% trypan blue staining to distinguish dead cells under an inverted microscope.

CC(=O)CC(c1ccccc1)c1c(O)c2ccccc2oc1=O (racemic) [Warfarin] was tested, and the primary tumor growth (AsPC1 tumors) was “little effect”, the “response of tumors to warfarin” value (Capan-1 tumors; no detectable Axl expression) was “nonresponsive” and the primary tumor growth (Capan-1 tumors; warfarin 1 mg/L drinking water) was “little effect”. The primary tumor growth (KIC tumors) was “reduced primary tumor growth”, the metastatic burden [1] was “consistently and potently inhibited metastatic burden” and the “effect on cell viability and proliferation” value (primary PDA cells) was “little or no effect on cell growth”. For the same molecule, the “effect on cell viability and proliferation” value (primary PDA cells; listed as warfarin) was “no effect”.
